According to patent publication US8569382B2, “Isolated compounds from Phaleria macrocarpa as anti-cancer agents” (PT. Dexa Medica, priority 2008, dated 2013):
Values after ≈ are worked out from the molar mass of the structure shown.

Legend:
Format in all cases: cell-based
[1] = test system: MDA-MB-231 cancer cells; assay: Anti-proliferation assay of MDA-MB-231 cancer cells (MTT); details: for effect on proliferation of MDA-MB-231 cells (percentage of alive cancer cell): with increase of concentration, FIG. 7 (F1), FIG. 8 (E2.2)
Experimental: (§1) In this assay, the effect of E2.2 and F1 compounds as anti proliferation and E2.2 compound as apoptosis inducer against MDA-MB-231 cancer cells will be observed. MDA-MB-231 cells were cultured in supplemented medium cells, and then incubated at temperature 37° C., 5% CO2.
This assay was performed in 96-well plates. Each well contained certain cancer cell density. After incubation for 24 hours, medium was changed into serum free medium, after that it was added with E2.2 compound sample as a single agent in various concentrations, so was with F1 compound. Cells were then re-incubated and after that the number of alive cells after treatment was determined by cell death determination assay. Absorbance value was read in microplate reader. After the absorbance value was converted with standard curve, the number of alive and death cells can be obtained.
Percentage of the number of alive cells in each treatment can be counted by counting the number of alive cells at wells that received treatment divided with the number of alive cells at healthy control and multiplied with 100%. % The number of alive cells=B/A×100% Notes: A is the number of alive cells at healthy control, and B is the number of alive cells that received treatment. IC50 value is a number showing a sample concentration that causes death as much as 50% in a population. Such value is obtained using BioStat statistical program. b. DNA Fragmentation Analysis Method

[2] = test system: MDA-MB-231 cells; assay: DNA fragmentation analysis (DNA Apoptosis Ladder Kit, gel electrophoresis); details: MDA-MB-231 cells, 50, 75, and 100 μg/mL; FIG. 9
Experimental: as §1
Apoptosis is an active process of cell death marked with DNA chromosome cleavage, chromatin condensation, and also DNA fragmentation. In this experiment, it was observed the effect of E2.2 compound addition toward the formation of DNA fragmentation as one of apoptosis indicators. Cells were cultured in the plates. After incubation for 24 hours, it was added with E2.2 compound in various concentrations. DNA fragmentation determination was performed using DNA Apoptosis Ladder Kit.

[3] = test system: BCl2 mRNA expression; assay: BCl2 RT-PCR in MDA-MB-231 cells; details: various concentrations, serum free medium, FIGS. 10a, 10b
Experimental: (§2) BCl2 and Bax genes are genes acting in apoptosis process. To identify BCl2 and Bax mRNA expressions, RT-PCR (reverse-transcription PCR) was performed. MDA-MB-231 cancer cells were grown in plates and added with E2.2 compound samples as a single agent in various concentrations. Experiment condition was performed in serum free medium. RNA total was isolated from MDA-MB-231 cancer cells. RNA isolation products were quantified using spectrophotometer and visualized by agarose gel electrophoresis technique. The RNAs were then used in RT-PCR process using specific primers. RT-PCR process was performed in PCR machine with optimized condition.

[4] = test system: Bax mRNA expression; assay: Bax RT-PCR in MDA-MB-231 cells; details: various concentrations, serum free medium, FIGS. 11a, 11b
Experimental: as §2

Row | SMILES | IC50 ([1]; Homo sapiens, MDA-MB-231 cells, MTT result, serum free medium, BioStat statistical program) [µg/mL] | effect on proliferation of MDA-MB-231 cells (percentage of alive cancer cell) [1] | formation of DNA fragments (apoptosis marker) [2] | BCl2 mRNA expression [3] | Bax mRNA level [4] | IC50 value ([1]; MDA-MB-231 cells, MTT result, serum free medium, BioStat statistical program) [µg/mL]
1 | COc1cc(O)c(C(=O)c2ccc(O)cc2)c(O)c1 [E2.2, 2,4′,6-trihydroxy-4-methoxybenzophenone] | 36.9 (≈ 142 µM) | anti proliferation effect | apoptosis inducer effect | downregulation | upregulation | 
2 | COc1cc(O)c(C(=O)c2ccc(O)cc2)c(O[C@@H]2O[C@H](CO)[C@@H](O)[C@H](O)[C@H]2O)c1 [F1, 4′,6-di-hydroxy-4-methoxybenzophenone-2-O-β-D-glycopyranoside] |  | anti proliferation effect |  |  |  | 65.80 (≈ 156 µM)
